Results reported in patent publication US11382907B2, “Methods and compositions for treating aging-associated impairments using CCR3-inhibitors” (Alkahest, Inc., priority 2017, dated 2022).

Assays:
Type in all cases: in vivo
[1] = test system: twenty-four-month-old C57 mice; assay: T maze test in aged mice; details: 4 weeks continuous infusion by osmotic pump
Procedure: The Water Maze was filled with water at least 24 hours prior to the test to allow it to reach room temperature. The water was dyed with white latex paint to make the animals visible for tracking and to allow for the use of a hidden platform. Two distinct visual cues were placed at the end of both T-arms of the T-Maze insert. On day 1 animals were given 4 trials each with a visible platform and a 30 min inter-trial interval. Animals were given 60 seconds to reach the platform. […] The goal arm was switched after every third mouse and both treatment groups had equal numbers of right and left turn goal arms. After each trial the mice were placed in an empty cage with blue pads and allowed to dry off under a red light lamp before being placed back into their home cage. Day 2 is the testing day, where animals are subjected to the same test of 4 trials each and a 30 min inter trial interval, but with a hidden platform. Animals were scored for right or wrong choice and for latency to reach the platform, and a binomial test was conducted to compare success rates between control and compound-treated mice. All trials were recorded using TopScan.
Twenty-four-month-old C57 mice were treated for 4 weeks with continuous infusion of Compound 1 or vehicle by Alzet osmotic pump, which were implanted to continuously deliver the two treatments. […]

[2] = test system: two-month-old C57Bl/6 mice treated with rmCCL11; assay: Open Field test in young mice given recombinant mouse CCL11; details: 2-month-old mice; rmCCL11 i.p.; Compound 1 30 mg/kg p.o. b.i.d., 2 weeks
Procedure: (§1) Open Field is used to evaluate general locomotor activity and exploratory behavior in a novel environment. Mice are brought to the experimental room for at least 30 min for acclimation to the experimental room conditions (dim lighting) prior to testing. The testing arena consists of a 50 cm×50 cm square arena. Mice are placed in the center of an arena and tracked for 15 minutes. Time spent in the peripheral and centers zones is analyzed, along with rearing behavior. 70% ethanol is used to clean all surfaces between trials.
[…] During the last week of treatment, mice were subjected to behavior testing prior to perfusion on the last day of treatment. All mice received 5 consecutive days of BrdU injection at 150 mg/kg IP immediately prior to treatment start. […]

aged C57Bl/6 mice [3] = assay: Open Field test in aged mice; details: 23-month-old mice; 30 mg/kg SQ BID 21 days, tested three weeks later
Procedure: as §1
(§2) 23-month-old C57Bl/6 mice were dosed with either vehicle control or Compound 1 subcutaneously twice daily for 21 days. Three weeks later, mice were subjected to behavior testing, and sacrificed the day following the last behavior test.

aged C57Bl/6 mice [4] = assay: Y-maze test in aged mice
Procedure: A large Y-maze test assesses short-term memory of the familiarity of a specific context. Mice are brought to the experimental room for at least 30 min of acclimation to the experimental room conditions (dim lighting) prior to testing. For the initial training trial, the mouse is placed at the end of one arm of a large Y-maze designated “start arm” (arm length: 15 inches). The third arm of the maze is blocked off, allowing the mouse to explore two of the three arms freely (“start arm” and “familiar arm”) for 5 min. Each arm contains spatial cues. One hour later, the mouse is placed back into the maze in the “start arm” and allowed to explore all three arms with the third arm unblocked (“novel arm”). Movements in and out of each arm are tracked using automated tracking software (CleverSys). Testing is performed under dim lighting, and the apparatus is cleaned with 70% ethanol between trials.
(§3) Two-month-old or 18-month-old C57Bl/6 mice were dosed with either IgG antibody control by IP injection or Compound 1 subcutaneously by Alzet osmotic pump for either 2 or 4 weeks. During the last week of treatment, mice were subjected to behavior testing prior to perfusion on the last day of treatment. All mice received 5 consecutive days of BrdU injection at 150 mg/kg IP immediately prior to treatment start.
as §3, with “Three-month-old” for “Two-month-old”, “16.5-month-old” for “18-month-old”, “vehicle” for “IgG antibody”, “control” for “control by IP injection”, “for” for “for either 2 or”
23-month-old C57Bl/6 mice were dosed with either vehicle control or Compound 1 by oral gavage twice daily for 19 days. After 11 days of treatment, mice were subjected to Y maze testing.
as §2

[5] = 23-month-old mice, 30 mg/kg SQ BID 21 days, tested three weeks later
[6] = 23-month-old mice, 30 mg/kg oral gavage BID, tested after 11 days

Cc1cc(C(=O)N(C)C)cc(NC(=O)[C@H]2CCC(=O)N2C2CCN(Cc3ccc(Cl)c(C)c3)CC2)n1 [Compound 1]
T maze success versus vehicle (binomial test) [1]: succeeded more than vehicle-treated mice
anxiety in the Open Field [2]: improved anxiety
Open Field distance travelled (aged C57Bl/6 mice [3]): strong trends towards improvement
Open Field velocity (aged C57Bl/6 mice [3]): strong trends towards improvement
cognitive performance in the cued Y-maze (aged C57Bl/6 mice [4]; 16.5-month-old mice, four-week subcutaneous dosing by pump): improved cognitive performance
performance in the cued Y-maze (aged C57Bl/6 mice [4]; 18-month-old mice, low or high infusion for 2 or 4 weeks): improvement in the cued Y-maze
Y-maze duration of time spent in the novel arm (aged C57Bl/6 mice [4]; [5]): exhibited intact memory for the novel arm
Y-maze number of visits to the novel arm (aged C57Bl/6 mice [4]; [5]): exhibited intact memory for the novel arm
memory in the Y-maze (aged C57Bl/6 mice [4]; [5]): significantly improved memory
velocity during the Y-maze test (aged C57Bl/6 mice [4]; [5]): significantly increased the velocity
Y-maze number of visits to the novel arm (aged C57Bl/6 mice [4]; [6]): exhibited intact memory for the novel arm
distance travelled during the Y-maze test (aged C57Bl/6 mice [4]; [6]): significantly increased the distance travelled
memory in the Y-maze (aged C57Bl/6 mice [4]; [6]): significantly improved memory
